# From PubChem BioAssay (NCI)
#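 Here, GI50 denotes the concentration required for 50% inhibition of growth. At the TGI there is no net growth.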
# Legend:
# Test in all cases: inhibition of tumour cell growth, NCI panel, 384-well format
# RPMI-8226 leukemia = tested on: RPMI-8226 leukemia
# MOLT-4 leukemia = tested on: MOLT-4 leukemia
# NCI/ADR-RES ovarian = tested on: NCI/ADR-RES ovarian
# TK-10 renal = tested on: TK-10 renal
# SN12C renal = tested on: SN12C renal
# NCI-H226 lung = tested on: NCI-H226 lung
# OVCAR-3 ovarian = tested on: OVCAR-3 ovarian
# HL-60(TB) leukemia = tested on: HL-60(TB) leukemia
# 786-0 renal = tested on: 786-0 renal
# ACHN renal = tested on: ACHN renal
# UACC-62 melanoma = tested on: UACC-62 melanoma
# HS 578T breast = tested on: HS 578T breast
# HCT-15 colon = tested on: HCT-15 colon
# SF-268 CNS = tested on: SF-268 CNS
# EKVX NSCLC = tested on: EKVX NSCLC
# RXF 393 renal = tested on: RXF 393 renal
# COLO 205 colon = tested on: COLO 205 colon
# PC-3 prostate = tested on: PC-3 prostate
# OVCAR-8 ovarian = tested on: OVCAR-8 ovarian
# SK-OV-3 ovarian = tested on: SK-OV-3 ovarian
# MALME-3M melanoma = tested on: MALME-3M melanoma
# NCI-H322M lung = tested on: NCI-H322M lung
# NCI-H23 lung = tested on: NCI-H23 lung
# HOP-62 NSCLC = tested on: HOP-62 NSCLC
# KM12 colon = tested on: KM12 colon
# SNB-19 CNS = tested on: SNB-19 CNS
# SW-620 colon = tested on: SW-620 colon
# K-562 leukemia = tested on: K-562 leukemia
# HT29 colon = tested on: HT29 colon
# A549 NSCLC = tested on: A549 NSCLC
# MDA-MB-468 breast = tested on: MDA-MB-468 breast
# NCI-H522 lung = tested on: NCI-H522 lung
# SNB-75 CNS = tested on: SNB-75 CNS
# LOX IMVI melanoma = tested on: LOX IMVI melanoma
# SK-MEL-5 melanoma = tested on: SK-MEL-5 melanoma
# SF-539 CNS = tested on: SF-539 CNS
# OVCAR-4 ovarian = tested on: OVCAR-4 ovarian
# A498 renal = tested on: A498 renal
# CAKI-1 renal = tested on: CAKI-1 renal
# MCF7 breast = tested on: MCF7 breast
# HOP-92 NSCLC = tested on: HOP-92 NSCLC
# BT-549 breast = tested on: BT-549 breast
# DU-145 prostate = tested on: DU-145 prostate
# IGROV1 ovarian = tested on: IGROV1 ovarian
# U251 glioblastoma = tested on: U251 glioblastoma
# HCT-116 colon = tested on: HCT-116 colon
# SF-295 CNS = tested on: SF-295 CNS
# HCC-2998 colon = tested on: HCC-2998 colon
# M14 melanoma = tested on: M14 melanoma
# MDA-MB-435 melanoma = tested on: MDA-MB-435 melanoma
# SK-MEL-2 melanoma = tested on: SK-MEL-2 melanoma
# NCI-H460 NSCLC = tested on: NCI-H460 NSCLC
# UACC-257 melanoma = tested on: UACC-257 melanoma
# CCRF-CEM leukemia = tested on: CCRF-CEM leukemia
# SK-MEL-28 melanoma = tested on: SK-MEL-28 melanoma
compound,measurement,setting,value
Nc1cc2c(cc1Cl)C(=O)c1ccccc1C2=O,GI50,RPMI-8226 leukemia,3.13 µM
same,TGI,RPMI-8226 leukemia,12 µM
same,GI50,MOLT-4 leukemia,23.8 µM
same,TGI,MOLT-4 leukemia,83.7 µM
same,GI50,NCI/ADR-RES ovarian,4.35 µM
same,TGI,NCI/ADR-RES ovarian,17.5 µM
same,GI50,TK-10 renal,2.63 µM
same,TGI,TK-10 renal,12.9 µM
same,GI50,SN12C renal,4.44 µM
same,TGI,SN12C renal,16.9 µM
same,GI50,NCI-H226 lung,1.86 µM
same,TGI,NCI-H226 lung,17 µM
same,GI50,OVCAR-3 ovarian,6.94 µM
same,TGI,OVCAR-3 ovarian,20.4 µM
same,GI50,HL-60(TB) leukemia,> 100 µM
same,TGI,HL-60(TB) leukemia,> 100 µM
same,GI50,786-0 renal,2.35 µM
same,TGI,786-0 renal,8.08 µM
same,GI50,ACHN renal,2.47 µM
same,TGI,ACHN renal,12.7 µM
same,GI50,UACC-62 melanoma,7.21 µM
same,TGI,UACC-62 melanoma,20.9 µM
same,GI50,HS 578T breast,4.51 µM
same,TGI,HS 578T breast,15.8 µM
same,GI50,HCT-15 colon,15 µM
same,TGI,HCT-15 colon,32.3 µM
same,GI50,SF-268 CNS,11.6 µM
same,TGI,SF-268 CNS,24 µM
same,GI50,EKVX NSCLC,6.17 µM
same,TGI,EKVX NSCLC,20.6 µM
same,GI50,RXF 393 renal,4.01 µM
same,TGI,RXF 393 renal,15 µM
same,GI50,COLO 205 colon,10.4 µM
same,TGI,COLO 205 colon,22.6 µM
same,GI50,PC-3 prostate,10.1 µM
same,TGI,PC-3 prostate,22 µM
same,GI50,OVCAR-8 ovarian,4.16 µM
same,TGI,OVCAR-8 ovarian,13.8 µM
same,GI50,SK-OV-3 ovarian,4.81 µM
same,TGI,SK-OV-3 ovarian,18.4 µM
same,GI50,MALME-3M melanoma,17.2 µM
same,TGI,MALME-3M melanoma,47.8 µM
same,GI50,NCI-H322M lung,6.15 µM
same,TGI,NCI-H322M lung,24 µM
same,GI50,NCI-H23 lung,2.65 µM
same,TGI,NCI-H23 lung,11.3 µM
same,GI50,HOP-62 NSCLC,2.34 µM
same,TGI,HOP-62 NSCLC,4.24 µM
same,GI50,KM12 colon,11.1 µM
same,TGI,KM12 colon,24 µM
same,GI50,SNB-19 CNS,3.59 µM
same,TGI,SNB-19 CNS,12.8 µM
same,GI50,SW-620 colon,11.8 µM
same,TGI,SW-620 colon,25.1 µM
same,GI50,K-562 leukemia,24.9 µM
same,TGI,K-562 leukemia,74.7 µM
same,GI50,HT29 colon,26 µM
same,TGI,HT29 colon,> 100 µM
same,GI50,A549 NSCLC,6.15 µM
same,TGI,A549 NSCLC,19.9 µM
same,GI50,MDA-MB-468 breast,0.228 µM
same,TGI,MDA-MB-468 breast,9.07 µM
same,GI50,NCI-H522 lung,10.2 µM
same,TGI,NCI-H522 lung,21.9 µM
same,GI50,SNB-75 CNS,2.92 µM
same,TGI,SNB-75 CNS,7.13 µM
same,GI50,LOX IMVI melanoma,0.276 µM
same,TGI,LOX IMVI melanoma,16.4 µM
same,GI50,SK-MEL-5 melanoma,3.59 µM
same,TGI,SK-MEL-5 melanoma,50.6 µM
same,GI50,SF-539 CNS,1.66 µM
same,TGI,SF-539 CNS,3.06 µM
same,GI50,OVCAR-4 ovarian,1.1 µM
same,TGI,OVCAR-4 ovarian,9.47 µM
same,GI50,A498 renal,2.18 µM
same,TGI,A498 renal,5.32 µM
same,GI50,CAKI-1 renal,13.2 µM
same,TGI,CAKI-1 renal,26.3 µM
same,GI50,MCF7 breast,11.1 µM
same,TGI,MCF7 breast,23.3 µM
same,GI50,HOP-92 NSCLC,3.85 µM
same,TGI,HOP-92 NSCLC,13.7 µM
same,GI50,BT-549 breast,2.67 µM
same,TGI,BT-549 breast,8.24 µM
same,GI50,DU-145 prostate,14.3 µM
same,TGI,DU-145 prostate,29 µM
same,GI50,IGROV1 ovarian,1.33 µM
same,TGI,IGROV1 ovarian,17.9 µM
same,GI50,U251 glioblastoma,3.21 µM
same,TGI,U251 glioblastoma,11 µM
same,GI50,HCT-116 colon,3.1 µM
same,TGI,HCT-116 colon,12.3 µM
same,GI50,SF-295 CNS,2.86 µM
same,TGI,SF-295 CNS,9.19 µM
same,GI50,HCC-2998 colon,11 µM
same,TGI,HCC-2998 colon,> 100 µM
same,GI50,M14 melanoma,14.2 µM
same,TGI,M14 melanoma,30.4 µM
same,GI50,MDA-MB-435 melanoma,19.9 µM
same,TGI,MDA-MB-435 melanoma,44.3 µM
same,GI50,SK-MEL-2 melanoma,2.56 µM
same,TGI,SK-MEL-2 melanoma,7.19 µM
same,GI50,NCI-H460 NSCLC,3.76 µM
same,TGI,NCI-H460 NSCLC,13.9 µM
same,GI50,UACC-257 melanoma,17.6 µM
same,TGI,UACC-257 melanoma,52 µM
same,GI50,CCRF-CEM leukemia,71 µM
same,TGI,CCRF-CEM leukemia,> 100 µM
same,GI50,SK-MEL-28 melanoma,17.8 µM
same,TGI,SK-MEL-28 melanoma,42.2 µM
